Earlier results, collected in paper PMC10671431, “New Derivatives of N-Hydroxybutanamide: Preparation, MMP Inhibition, Cytotoxicity, and Antitumor Activity” (International Journal of Molecular Sciences, 2023).
Read-outs that look alike come from different tables or passages of the source.

What was measured:
[1] = system: rat prostate cells derived from R3327-MatLyLu Dunning tumor; set-up: method as in PMID 10754522; details: 4000 ng/mL (8.37 μM), 48 h of exposure; cited from earlier work
B16-BL6 melanoma = system: B16-BL6 melanoma; set-up: method as in PMID 8050828; details: mice with B16-BL6 melanoma; cited from earlier work
[2] = system: pancreatic adenocarcinoma HPAC cells; set-up: method as in PMID 9224409; details: 4000 ng/mL (8.37 μM), 24 h of exposure; cited from earlier work
[3] = system: pancreatic carcinoma cells MiaPaCa2; set-up: method as in PMID 24022491; details: 5 μM, 24 h of exposure; cited from earlier work
human glioma U-251 cells = system: human glioma U-251 cells; set-up: method as in PMID 10048980; details: 10 μM, 96 h of exposure; cited from earlier work
[4] = system: pancreatic adenocarcinoma cells AsPC1; set-up: method as in PMID 10767785; details: 72 h of exposure, cited from earlier work
[5] = system: Shionogi hormone-responsive breast carcinoma cells; set-up: method as in PMID 8347186; details: 156 μg/mL (326.61 μM), 96 h of exposure; cited from earlier work
[6] = system: pancreatic carcinoma cells CD18; set-up: method as in PMID 24022491; details: 5 μM, 24 h of exposure; cited from earlier work
[7] = system: pancreatic adenocarcinoma cells Capan1; set-up: method as in PMID 10767785; details: 72 h of exposure, cited from earlier work
[8] = system: WM266-4 melanoma cells in nude mice; set-up: method as in PMID 27687955; details: cited from earlier work
[9] = system: human malignant glioma cells U-87; set-up: method as in PMID 10213221; details: cited from earlier work
Lewis lung carcinoma = system: Lewis lung carcinoma; set-up: method as in PMID 9247252; details: cited from earlier work
[10] = system: human MV522 lung cancer cells in nude mice; set-up: method as in PMID 10430098; details: cited from earlier work
[11] = system: hormone-sensitive prostate cancer G subline of Dunning tumor; set-up: method as in PMID 16096433; details: rats; cited from earlier work
MMP-13 = system: MMP-13; set-up: method as in PMID 23541335, PMID 16538215; details: cited from earlier work
MMP-1 = system: MMP-1; set-up: method as in PMID 23541335, PMID 16538215; details: cited from earlier work
MMP-8 = system: MMP-8; set-up: method as in PMID 23541335, PMID 16538215; details: cited from earlier work
[12] = concentrations up to 10,000 ng/mL (20.94 μM)
[13] = higher concentrations (up to 100,000 ng/mL or 209.36 μM)

For `CNC(=O)[C@H](Cc1ccccc1)NC(=O)[C@H](CC(C)C)[C@H](CSc1cccs1)C(=O)NO` [Batimastat], the “inhibition of cell growth” value [1] is given as “inhibit the growth”, the tumor growth (B16-BL6 melanoma) is given as “inhibit tumor growth” and the “inhibition of cell growth” value [2] is given as “inhibit the growth”. The toxicity to cells [3] was “toxic”, the “reduction in cell viability” value (human glioma U-251 cells) was 20–40% and the toxicity to cells [4, 12] was “no toxicity”. For the same molecule, the toxicity to cells [4, 13] was “only mild toxicity”, the “effect on cell density” value [5] was “no apparent effect” and the toxicity to cells [6] was “toxic”. For the same molecule, the toxicity to cells [7, 12] was “no toxicity” and the toxicity to cells [7, 13] was “only mild toxicity”.

In the case of `Nc1ccc(Oc2ccc(S(=O)(=O)CC3CS3)cc2)cc1` (stereo not shown) [ND-322], the tumor growth [8] is given as “inhibited the growth”.

For `CC1(C)SCCN(S(=O)(=O)c2ccc(Oc3ccncc3)cc2)[C@H]1C(=O)NO` [Prinomastat], the “concentrations toxic to cells” value [9] is given as “above 100 μM”, the tumor growth (Lewis lung carcinoma) is given as “inhibit the growth” and the tumor growth [10] is given as “inhibit the growth”.

For `O=C1NC(=O)C(c2ccc(-c3ccccc3)cc2)(N2CCN(c3ccc([N+](=O)[O-])cc3)CC2)C(=O)N1` [RO 28-2653], the tumor growth [11] is listed as “inhibit the growth”.

In the case of `O=C(C[C@H](CSc1ccccc1)C(=O)O)c1ccc(-c2ccc(Cl)cc2)cc1` [tanomastat], the “inhibition of MMP-13” value (MMP-13) is given as “does not inhibit”, the “inhibition of MMP-1” value (MMP-1) is given as “does not inhibit” and the “inhibition of MMP-8” value (MMP-8) is given as “does not inhibit”.
